Measured values as given in PMC7936488, “An efficient system for intestinal on-site butyrate production using novel microbiome-derived esterases” (Journal of Biological Engineering, 2021).

Assays:
SP_Est = biological target: T1, SP_Est (Streptococcus pneumoniae, UniProt A0A0H2UNZ8); test: p-nitrophenol release at […] nm, E. coli tEc cells expressing the gene vs empty vector; type: cell-based; conditions: whole-cell culture aliquot, 5 min
T1 construct: gene estA; gene in pBAD24 under tbe1 promoter, E. coli tEc cells, not purified
T1 sequence (A0A0H2UNZ8 1-259): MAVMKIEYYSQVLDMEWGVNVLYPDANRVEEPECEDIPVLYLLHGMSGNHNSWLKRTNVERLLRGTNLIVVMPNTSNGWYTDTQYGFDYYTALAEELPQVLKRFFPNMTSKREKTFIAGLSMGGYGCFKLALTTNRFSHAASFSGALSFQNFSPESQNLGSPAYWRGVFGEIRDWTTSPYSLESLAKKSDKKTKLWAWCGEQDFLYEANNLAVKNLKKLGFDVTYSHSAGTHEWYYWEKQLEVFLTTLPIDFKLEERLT

LL_Tbe = biological target: T2, LL_Tbe (Lactococcus lactis, UniProt Q9L9X0); test: as above; type: cell-based; conditions: whole-cell culture aliquot, 5 min
T2 construct: gene estA; gene in pBAD24 under tbe1 promoter, E. coli tEc cells, not purified
T2 sequence (Q9L9X0 1-258): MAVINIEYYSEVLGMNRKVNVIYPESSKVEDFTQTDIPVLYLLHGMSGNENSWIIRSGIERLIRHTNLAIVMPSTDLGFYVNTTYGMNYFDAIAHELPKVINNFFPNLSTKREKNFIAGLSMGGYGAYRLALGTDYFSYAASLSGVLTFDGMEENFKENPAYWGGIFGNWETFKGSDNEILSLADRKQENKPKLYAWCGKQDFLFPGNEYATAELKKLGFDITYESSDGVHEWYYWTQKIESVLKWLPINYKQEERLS

## CCCC(=O)Oc1ccc([N+](=O)[O-])cc1 [4-nitrophenyl butyrate]
SP_Est
  p-nitrophenol release at 400 nm, E. coli tEc cells expressing the gene vs empty: the esterase of S. pneumoniae was the most potent among the four tested enzymes
LL_Tbe
  p-nitrophenol release at 400 nm, E. coli tEc cells expressing the gene vs empty: Tbe1 demonstrated almost identical activity to the L. lactis enzyme
